From patent US20080096238A1, “HIGH THROUGHPUT ASSAY FOR HUMAN RHO KINASE ACTIVITY WITH ENHANCED SIGNAL-TO-NOISE RATIO” (ALCON, INC., priority 2004, published 2008) come the findings set out here.

Molecules are shown by their SMILES.

Assay [1] relates to Ocular Hypertensive Monkey Eyes. Briefly: Intraocular pressure reduction in conscious ocular hypertensive cynomolgus monkey eyes after topical ocular dosing.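 Note: mean of 8 drug-treated monkeys per time point, IOP change expressed against a vehicle-dosed control group of 5 monkeys.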 Format: in vivo.
Assay [2] deals with T1, Human Recombinant ROCK II Enzyme (Homo sapiens, UniProt O75116).
T1 construct: purchased Upstate USA, Inc., Lake Placid, N.Y. 14-451
T1 sequence (O75116 11-552): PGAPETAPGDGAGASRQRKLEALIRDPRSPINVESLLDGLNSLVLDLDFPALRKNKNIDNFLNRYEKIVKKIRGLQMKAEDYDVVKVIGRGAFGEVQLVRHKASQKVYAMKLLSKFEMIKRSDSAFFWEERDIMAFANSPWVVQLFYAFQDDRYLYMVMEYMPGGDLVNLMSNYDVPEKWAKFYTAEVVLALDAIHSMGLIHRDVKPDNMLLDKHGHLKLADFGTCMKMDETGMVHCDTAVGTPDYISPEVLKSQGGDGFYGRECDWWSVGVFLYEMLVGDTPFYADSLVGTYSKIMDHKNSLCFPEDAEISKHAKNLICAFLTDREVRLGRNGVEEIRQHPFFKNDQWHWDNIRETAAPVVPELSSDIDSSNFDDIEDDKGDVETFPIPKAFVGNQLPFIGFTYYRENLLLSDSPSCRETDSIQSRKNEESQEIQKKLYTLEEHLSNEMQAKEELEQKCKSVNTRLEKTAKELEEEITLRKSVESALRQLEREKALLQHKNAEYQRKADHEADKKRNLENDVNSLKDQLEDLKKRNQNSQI
Briefly: High throughput human recombinant ROCK II enzyme inhibition assay (γ-33P-ATP, Long S6 substrate peptide, filter mat). Particulars: mean ± SEM; for Hill Coefficient (nH): Hill coefficient of the inhibition plots; for IC50: recombinant human ROCK II (aa 11-552), 100 μM ATP, 30 min at 30° C., read-out: Inhibition Constant (IC50). Format: biochemical. Here is the method:
The enzyme assays are performed using a Biomek 2000 Robotic Workstation (Beckman Instruments, Palo Alto, Calif.) in a 96-well format using γ-^33P-ATP (Perkin-Elmer Life Sciences, Boston, Mass.). Stock γ-^33P-ATP (3000 Ci/mmol) is diluted to 1 μCi/μl with the MgCl2/ATP cocktail solution. The concentrations of MgCl2/ATP used are 15 mM and 100 μM, respectively. […] The unutilized [γ-^33P]-ATP and other residual reagents are thereby eliminated from the filter mat but the radioactive phosphorylated peptide product is retained on the filter mat for quantification. The automated washing of the filter mat thereby enhances the signal-to-noise ratio of the assay thus rendering it into a sensitive assay. The filter mats bearing the captured radioactive phosphorylated product are then dried in a microwave oven for 15 sec, placed in special sample cellophane bag (Wallac Inc., Turku, Finland) designed for these filter mats and covered with 20 ml of Betaplate scintillation fluid (Perkin-Elmer Inc., Boston, Mass.). The bags are then sealed using a heat sealer device (Wallac Inc., Turku, Finland) and a roller used to evenly spread the scintillation fluid over the whole of the filter mat.
In a further embodiment of the present invention, the dried filter mat can be covered with a solid scintillant (MELTILEX®; Wallac Inc., Turku, Finland) that is melted directly onto the filter mat using a MELTILEX® heat sealer (Wallac Inc., Turku, Finland), a device designed for this purpose. The coated filter mat is then placed in a sample cellophane bag (Wallac Inc., Turku, Finland) designed for these filter mats that is then sealed and the radioactivity determined as described above. The solid scintillant assists in avoiding the spread of radioactivity from sample to sample on the dried filter mat and thus minimizes variation of the data. A solid scintillant also eliminates waste disposal of liquid scintillation fluid.
The raw data from the filter mats are then automatically sent electronically to a computer for semi-automated analyses using algorithms and a suite of programs (XLFITT computer program; IDBS corporation, Emeryville, Calif.) that perform non-linear, iterative, sigmoidal-fit analyses of the raw data.

A further assay concerns Rabbit Eyes. Briefly: Intraocular pressure reduction in rabbit eyes after topical ocular dosing.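 Note: mean IOP reduction per time point from 7-8 rabbits per group, drug-treated groups alongside vehicle-treated control groups.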 Format: in vivo.
[3] abbreviates: topical ocular dose 500 μg, 1 Hour Post Dosing.
Setting [4] is: topical ocular dose 500 μg, 3 Hours Post Dosing.
Setting [5] is: topical ocular dose 500 μg, 6 Hours Post Dosing.
Setting [6] is: topical ocular dose 1 mg, 1 Hour Post Dosing.
The mark [7] stands for this setting: topical ocular dose 1 mg, 3 Hours Post Dosing.
The mark [8] stands for this setting: topical ocular dose 1 mg, 6 Hours Post Dosing.
[9] abbreviates: topical ocular dose 500 μg, 2 Hours Post Dosing.
Where [10] appears, read: topical ocular dose 500 μg, 4 Hours Post Dosing.
Where [11] appears, read: topical ocular dose 300 μg, 1 Hour Post Dosing.
Where [12] appears, read: topical ocular dose 300 μg, 2 Hours Post Dosing.
The mark [13] stands for this setting: topical ocular dose 300 μg, 3 Hours Post Dosing.
Where [14] appears, read: topical ocular dose 300 μg, 4 Hours Post Dosing.
Where [15] appears, read: topical ocular dose 300 μg, 6 Hours Post Dosing.

Regarding `Cc1cncc2cccc(S(=O)(=O)N3CCNC(C)C3)c12` (stereo not drawn) [F], the entries for the “% Max. IOP Reduction in Ocular Hypertensive Monkey Eyes” value in assay [1] (setting [3]), in assay [1] (setting [4]) and in assay [1] (setting [5]) were 23%, 20% and 20%, respectively. Further, the “Hill Coefficient (nH)” value in assay [2] is listed as 0.94 ± 0.11.
For `CC1CNCCN1S(=O)(=O)c1cccc2cnccc12` (stereo not drawn) [E, H-7], the “% Max. IOP Reduction in Ocular Hypertensive Monkey Eyes” value in assay [1] (setting [6]) was determined as 31%; in assay [1] (setting [7]), 21%; in assay [1] (setting [8]) it was 12%. The “% Max. IOP Reduction in Rabbit Eyes” value in the assay with Rabbit Eyes (setting [3]) worked out at 19%; with Rabbit Eyes (setting [9]), 11%; in the assay on Rabbit Eyes (setting [4]), 0%; in the assay with Rabbit Eyes (setting [10]), 6%. In assay [2], the “Hill Coefficient (nH)” value was determined as 0.99 ± 0.13.
On to `Cc1cncc2cccc(S(=O)(=O)N3CCCN(C)C(C)C3)c12` (stereo not drawn) [H], for which the “Hill Coefficient (nH)” value in assay [2] was 0.95 ± 0.16.
Regarding `O=S(=O)(c1cccc2cnccc12)N1CCCNCC1` [D, Fasudil, Fasudil], the “% Max. IOP Reduction in Ocular Hypertensive Monkey Eyes” value in assay [1] (setting [3]) turned out to be 33%; in assay [1] (setting [4]), 28%; in assay [1] (setting [5]) it was 16%. Moreover, the “% Max. IOP Reduction in Rabbit Eyes” value came to 17% in the assay with Rabbit Eyes (setting [11]); 29% in the assay on Rabbit Eyes (setting [12]); 26% in the assay with Rabbit Eyes (setting [13]); 20% in the assay on Rabbit Eyes (setting [14]); 25% in the assay with Rabbit Eyes (setting [3]); 33% in the assay with Rabbit Eyes (setting [9]). Moreover, the “% Max. IOP Reduction in Rabbit Eyes” value turned out to be 25% in the assay with Rabbit Eyes (setting [4]) and 17% with Rabbit Eyes (setting [10]).
For `Cc1cncc2cccc(S(=O)(=O)N3CCCNCC3C)c12` (stereo not drawn) [A, HMN-1152], the “% Max. IOP Reduction in Ocular Hypertensive Monkey Eyes” value in assay [1] (topical ocular dose 100 μg, 1 Hour Post Dosing) stood at 28%; in assay [1] (topical ocular dose 100 μg, 3 Hours Post Dosing), 25%; in assay [1] (topical ocular dose 100 μg, 6 Hours Post Dosing), 19%; in assay [1] (setting [11]), 29%; in assay [1] (setting [13]) it was 30%; in assay [1] (setting [15]) it was 21%. Further, the “% Max. IOP Reduction in Ocular Hypertensive Monkey Eyes” value was 42% in assay [1] (setting [6]), 51% in assay [1] (setting [7]) and 36% in assay [1] (setting [8]). The “% Max. IOP Reduction in Rabbit Eyes” value is 34% with Rabbit Eyes (setting [3]); 34% in the assay on Rabbit Eyes (setting [9]); 27% with Rabbit Eyes (setting [4]); 19% with Rabbit Eyes (setting [10]); 29% in the assay on Rabbit Eyes (setting [6]); 35% in the assay with Rabbit Eyes (topical ocular dose 1 mg, 2 Hours Post Dosing). Further, the “% Max. IOP Reduction in Rabbit Eyes” value is on record as 32% in the assay on Rabbit Eyes (setting [7]) and 24% with Rabbit Eyes (topical ocular dose 1 mg, 4 Hours Post Dosing).
Take `CC(N)[C@H]1CC[C@H](C(=O)Nc2ccccc2)CC1` (stereo partly drawn) [G, Y-27632]: the “% Max. IOP Reduction in Ocular Hypertensive Monkey Eyes” value came out at 15% in assay [1] (setting [11]); 14% in assay [1] (setting [13]); 8% in assay [1] (setting [15]); 24% in assay [1] (setting [6]); 36% in assay [1] (setting [7]); 32% in assay [1] (setting [8]). Also, the “% Max. IOP Reduction in Rabbit Eyes” value with Rabbit Eyes (topical ocular dose 2 mg, 1 Hour Post Dosing) came out at 26%; in the assay on Rabbit Eyes (topical ocular dose 2 mg, 2 Hours Post Dosing), 28%; in the assay with Rabbit Eyes (topical ocular dose 2 mg, 3 Hours Post Dosing), 29%; with Rabbit Eyes (topical ocular dose 2 mg, 4 Hours Post Dosing) it was 27%.
Regarding `O=S(=O)(c1cccc2c(Cl)cccc12)N1CCCNCC1` [J, ML-9], the “% Max. IOP Reduction in Ocular Hypertensive Monkey Eyes” value in assay [1] (setting [11]) was determined as 7%; in assay [1] (setting [13]) it was 6%; in assay [1] (setting [15]) it was 5%. For the same molecule, the “% Max. IOP Reduction in Rabbit Eyes” value is 8% in the assay on Rabbit Eyes (setting [11]), 23% with Rabbit Eyes (setting [12]), 0.4% in the assay on Rabbit Eyes (setting [13]) and 6% in the assay on Rabbit Eyes (setting [14]). Moreover, the “Hill Coefficient (nH)” value in assay [2] came out at 0.9 ± 0.3. The 50% inhibitory concentration (IC50) – broadly, the concentration that gives 50% inhibition – in assay [2] was 12 µM.
`Cc1cncc2c1=C(S(=O)(=O)N1CCCN(C)CC1C)CCC=2` (stereo not drawn) [B]: in assay [2], the “Hill Coefficient (nH)” value worked out at 0.6 ± 0.2 and the 50% inhibitory concentration (IC50) was 0.485 ± 0.207 µM.
Regarding `CC1CN(S(=O)(=O)c2cccc3cnccc23)CCN1` (stereo not drawn) [I, HA-135], the “% Max. IOP Reduction in Ocular Hypertensive Monkey Eyes” value in assay [1] (setting [3]) came to 19%; in assay [1] (setting [4]) it was 15%; in assay [1] (setting [5]) it was 1%. The “Hill Coefficient (nH)” value in assay [2] turned out to be 0.91 ± 0.28.
